# Where a name gives a salt, the structure may show the parent alone.
# How the values were obtained:
# [1] = Stress ulcer (water immersion stress) in mice; assay type: in vivo, mice (ddK strain, male); conditions: Table 1, 25 mg/kg p.o.
# Experimental: Male mice of ddK strain (body weights, 18-20 g) were placed in a stress cage in groups of 6 animals and immersed down to the level of the xiphoid process in a water bath at 22±1° C. to give a stress. Five hours later the mice were raised from the water bath and the stomach was removed under ether anesthesia. Into the stomach was infused 1.2 ml of a 10% aqueous solution of formaldehyde and, then, the stomach was immersed in a 10% aqueous solution of formaldehyde for 10 minutes for fixation of the tissue. After fixation, an incision was made along the greater curvature for observing ulcers which had appeared in the glandular portion of the stomach. The degree of ulceration was classified according to the following ulcer index scale and the % inhibition of ulcer was estimated.
# 2: Hemorrhage and erosion
# 3: Severe hemorrhage and erosion
# Each test compound was orally administered, as suspended in a gum arabic solution in concentration of 5%, to mice 10 minutes before stress loading.
# [2] = Pyloric ligation-induced ulcer (Shay ulcer) in rats; assay type: in vivo, Wistar rats (male); conditions: Table 2, 50 mg/kg i.d.
# Experimental: Male Wistar rats (body weights, 180-200 g) were used in groups of 7 animals. After 48-hour fasting, laparotomy was performed under ether anesthesia and the pylorus was ligated with a suture. After 13 hours, the stomach was isolated under ether anesthesia and gastric juice was collected. The gastric juice was centrifuged at 3,000 r.p.m. for 10 minutes and the volume and pH value of gastric juice were determined. The pH value was determined by using pH paper. After collection of gastric juice, a 10% aqueous solution of formaldehyde was infused into the stomach until the stomach was inflated. Then, the stomach was immersed in a 10% aqueous solution of formaldehyde for 10 minutes for fixation of the tissue. After fixation, an incision was made along the greater curvature for observing ulcers which had developed in the glandular portion of the stomach. The degree of ulcer was classified according to the following ulcer index scale.
# 2: 1-5 small ulcers (<3 mm in diameter)
# 3: Six or more small ulcers or one large ulcer (>3 mm in diameter)
# 4: Two or more large ulcers
# Each test compound was administered, as suspended in a gum arabic solution in concentration of 5%, into the duodenum immediately after pyloric ligation.
# [3] = Indomethacin-induced ulcer in rats; assay type: in vivo, Wistar rats (male); conditions: Table 3, 50 mg/kg p.o.
# Experimental: (§1) Male Wistar rats (body weights, 170-210 g) were used in groups of 6 to 8 animals. Indomethacin, 20 mg/kg body weight, was injected subcutaneously to rats which had been deprived of food for 24 hours. After 7 hours, the stomach was excised under ether anesthesia. A 10% aqueous solution of formaldehyde was infused into the stomach until the stomach was inflated and, then, the stomach was immersed in a 10% aqueous solution of formaldehyde for 10 minutes for fixation of the tissue. After fixation, an incision was made along the greater curvature and the length of ulcers occurring in the glandular portion of the stomach was measured. The total length of ulcers occurring in a rat was taken as an ulcer index. Each test compound was orally administered, as suspended in a gum arabic solution in concentration of 5%, to rats 10 minutes before subcutaneous injection of indomethacin. The doses of test compounds and the ulcer indices for treated and untreated rats are shown in Table 3 for purposes of comparison. The % inhibition of ulcer by each test compound as estimated from the ulcer index is also presented in the same table.
# [4] = Hydrochloric acid-ethanol-induced ulcer in rats; assay type: in vivo, Wistar rats (male)
# Experimental: as §1, with “Male Wistar rats (body weights, 160-190 g) were used in groups” for “The doses”, “6 to 8 animals. One milliliter of a 60% aqueous solution of ethanol containing 150 mM hydrochloric acid was administered orally to rats which had been deprived of food for 24 hours. After one hour,” for “test compounds and”, “stomach was excised under ether anesthesia. In a manner similar to that described in study” for “ulcer indices”, “indomethacin-induced ulcer,” for “treated and untreated rats are shown in Table 3 for purposes of comparison. The % inhibition of ulcer by each test compound as estimated from”, “was determined. Each test compound was orally administered, as suspended” for “is also presented”, “a gum arabic solution in concentration of 5%, to rats 1 hour before administration of hydrochloric acid-ethanol.” for “the same table.”
# [5] = Acute toxicity in mice, oral; design: species or system ddK strain); conditions: mouse, in vivo, male ddK mice, 10 animals per group
# Experimental: The 3,4-dihydrobenzopyran compound [I] has been confirmed to be low in toxicity. […] The corresponding values of Compounds (2) to (11) were respectively more than 2,000 mg/kg, and those of compounds (12) to (36) were all more than 3,500 mg/kg.
# [6] = Expectorant action: tracheal secretion of fluorescein sodium in rats; assay type: in vivo, Wistar rats (male); conditions: 50 mg/kg oral
# Experimental: Male Wistar rats (body weights, 280-320 g) were used in groups of 7 animals. Each test compound was orally administered in dose of 50 mg/kg body weight to rats. Immediately after administration, 0.3 ml/100 g (body weight of rat) of a 1% aqueous solution of fluorescein sodium was injected into the caudal vein. One hour after administration of the test compound, pentobarbital sodium 100 mg/kg (body weight of rat) was injected intraperitoneally so that deep anesthesia might cause the rat to die. Then, the trachea was exposed and an incision was made in the trachea. A sonde was inserted thereinto and ligation was made. To the sonde was connected a syringe containing 10 ml of a 5% solution of sodium hydrogen carbonate kept at 37° C. and 4 ml of the solution of sodium hydrogen carbonate was injected into the lung. After 5 minutes, the fluid in the lung was removed. After this procedure of injection and removal was repeated three times, the fluid removed from the lung was filtered and the filtrate was made up with water to make 20 ml. The intensity of fluroescence was determined at the excitation wave length of 491 nm and the fluorescence wave length of 510 nm using a spectrophotometer (HITACHI model 650-10, Hitachi, Ltd.). The amount of fluorescein sodium secreted into the trachea was estimated from the intensity of fluorescence. Each test compound was administered as suspended in a gum arabic solution in concentration of 5%.
# [7] = Antitussive action: coughing induced by tracheal stimulation in guinea pigs; assay type: in vivo; conditions: Cavia porcellus, ip; Table 17; intraperitoneal; up and down method
# Experimental: Pentobarbital sodium 15 mg/kg was injected intraperitoneally to guinea pigs (body weight, 400 g or more) and under slight anesthesia, each guinea pig was immobilized in dorsal position. The skin in the anterior cervical region was incised along the midline and the trachea was exposed so as not to injure the subcutaneous tissue. A small hole was drilled in the anterior aspect of the trachea at a location 1.5 cm distant from the clavicle and through this hole a stimulating hair was inserted over a distance of 3 cm at an angle of 30° from the longitudinal axis of the trachea and, after one second, was pulled out. The stimulation was given 5 and 20 minutes after drilling of the small hole, and after occurrence of coughing was confirmed, each test compound was injected intraperitoneally. At 5 time points, i.e. 15, 30, 60, 90 and 120 minutes after injection, it was checked whether stimulation caused coughing in the same manner as described above. If coughing was not induced, even only once on the five occasions of stimulation, the test compound was regarded as effective, and if cough appeared on all the 5 occasions of stimulation,the test compound was regarded as ineffective. The ED50 value (mg/kg) was determined by the up and down method using 10 guinea pigs [See K. A. Brownlee et al., J. Am. Stat. Assoc. 48, 262 (1953)]. As a stimulating hair, one porcine bristle, about 5 cm long, was used.
# After completion of the study, the skin and wound opening of each guinea pig were fully disinfected with acrinol solution and the skin was sutured. Then, the guniea pigs were maintained as usual. The guinea pigs were not vigorous on the day following the test, with body weights decreased, but recovered after one week. After the lapse of 10 days or more, the animals were resubmitted to the test.
smiles,measurement,setting,value
"COc1c(C)c(C)c2c(c1C)CCC(C)(CC(=O)NC(=N)N)O2 (stereo not drawn) [Compound (1), N-(3,4-Dihydro-6-methoxy-2,5,7,8-tetramethyl-2H-benzopyran-2-yl)acetylguanidine]",% Inhibition of ulcer,[1],61.98%
same,Ulcer index (mean ± S.E.),[1]; control 2.63 ± 0.18,1.00 ± 0.63 mm
same,pH value of gastric juice,[2]; control 1.77 ± 0.54,2.07 ± 0.94
same,Volume of gastric juice,[2]; control 5.09 ± 0.40,3.36 ± 0.90 ml/100 g body weight
same,Ulcer index (mean ± S.E.),"[2]; scale 0-5, control 3.86 ± 0.40",2.33 ± 0.42
same,% Inhibition of ulcer,[3],77.80%
same,Ulcer index (mean ± S.E.),[3]; control 10.36 ± 2.07,2.30 ± 0.58 mm
same,inhibition in vivo at 25 mg/kg,"[4]; Rattus norvegicus, po, 1 h, Table 7, 25 mg/kg p.o.",91.1%
same,Ulcer index (mean ± S.E.),"[4]; Table 4, 50 mg/kg p.o., control 7.36 ± 1.23",0.39 ± 0.19 mm
same,LD50,[5],3560 mg/kg
"COc1cc(C(=O)N2CCN(CCC3(C)CCc4c(C)c(OC)c(C)c(C)c4O3)CC2)cc(OC)c1OC (stereo not drawn) [Compound (17), 3,4-Dihydro-6-methoxy-2-[2-[4-(3,4,5-trimethoxybenzoyl)piperazin-1-yl]ethyl]-2,5,7,8-tetramethyl-2H-benzopyran]",inhibition in vivo at 50 mg/kg,"[4]; Rattus norvegicus, po, 1 h, Table 9, 50 mg/kg p.o.",65.7%
same,Ulcer index (mean ± S.E.),"[4]; Table 9, 50 mg/kg p.o., control 7.22 ± 0.36",2.48 ± 0.68 mm
same,Secretory amount (mean ± S.E.),"[6]; Table 13, control 5.30 ± 0.40",7.90 ± 0.72 μg/100 g (body weight of rat)/
same,Secretory amount (mean ± S.E.),"[6]; Table 15, control 5.20 ± 0.78",9.44 ± 1.14 μg/100 g (body weight of rat)/
same,ED50,[7],113 mg/kg
"COc1ccc(C(=O)N2CCN(CCC3(C)CCc4c(C)c(OC)c(C)c(C)c4O3)CC2)cc1 (stereo not drawn) [Compound (19), 1-[2-(3,4-Dihydro-6-methoxy-2,5,7,8-tetramethyl-2H-benzopyran-2-yl)ethyl]-4-(4-methoxybenzoyl)piperazine]",Secretory amount (mean ± S.E.),"[6]; Table 13, control 5.30 ± 0.40",8.12 ± 0.58 μg/100 g (body weight of rat)/
same,ED50,[7],50.1 mg/kg
"CCOC(CN1CCN(CC(C)C(=O)c2ccccc2)CC1)c1ccccc1 (stereo not drawn) [Eprazinone hydrochloride, 3-[4-(β-ethoxyphenethyl)-1-piperadinyl]-2-methylpropiophenone hydrochloride, reference compound]",Secretory amount (mean ± S.E.),"[6]; Table 13, control 5.30 ± 0.40",5.26 ± 0.40 μg/100 g (body weight of rat)/
same,Secretory amount (mean ± S.E.),"[6]; Table 14, control 1.60 ± 0.18",2.67 ± 0.18 μg/100 g (body weight of rat)/
same,Secretory amount (mean ± S.E.),"[6]; Table 16, control 6.455 ± 0.766",5.736 ± 0.369 μg/100 g (body weight of rat)/
same,ED50,[7],122 mg/kg

# From patent US4728650A, “3,4-dihydrobenzopyran derivatives and medicinal uses thereof” (Kuraray Co., Ltd., priority 1985, dated 1988)
